Assay results from patent US11254965B2 (priority 2015, dated 2022).
Like-named read-outs stand apart in the source and are kept apart here.

What was measured:
CLso = type: cell-based, Candidatus Liberibacter solanacearum; settings: 48 h treatment, CLso-potato hairy roots
Lso = type: cell-based, Candidatus Liberibacter solanacearum; settings: 100 mg/L penicillin

Compound: CC/C=C\CC1C(=O)CCC1CC(=O)OC (stereo not shown) [methyl-JA, methyl jasmonate]
- relative CLso titers versus DMSO control (CLso; 10 uM): suppressed CLso
- relative CLso titers versus DMSO control (CLso; 10 uM, listed as methyl-jasmonate): decreased CLso titers

Compound: O=C(O)c1ccccc1O [salicylic acid]
- relative CLso titers versus DMSO control (CLso; 100 uM): no significant effect

Compound: penicillin
- Lso titer versus Lso colonized hairy roots not exposed (Lso; 2 days of exposure): significantly lower titer of Lso
- Lso titer versus Lso colonized hairy roots not exposed (Lso; 7 days of exposure): significantly lower titer of Lso
- relative CLso titers versus DMSO control (CLso; 100 ppm): significantly suppressed CLso titers
- relative CLso titers versus DMSO control (CLso; 100 ppm, listed as Penicillin): decreased CLso titers
